Laboratory results as given in patent US10442788B2, “Hepatitis B antiviral agents” (ENANTA PHARMACEUTICALS, INC., priority 2015, dated 2019).

What was measured:
[1] = Compound toxicity, ATPLite total ATP levels; format: cell-based; settings: human, HepAD38 cells; 15,000 cells/well, three days after compound addition; 50% reduction of total ATP levels relative to no drug controls
Procedure: (§1) Methods: HepAD38 cells are maintained as previously reported (Ladner et al, Antimicrob. Agents Chemother. 1997, […], 1715). Briefly, cells are passaged upon attaining confluency in DMEM/F12 media in the presence of 10% FBS, Penn/Strep, 250 μg/mL G418, and 1 ug/ml tetracycline. Novel compounds are screened by first washing cells three times with PBS to remove tetracycline, and plating in 96 well plates at 35,000 cells/well. Compounds dissolved in DMSO are then diluted 1:200 into wells containing cells. Five days after compound addition, material is harvested for analysis. For an extended 8 day analysis, cells are plated and treated as described above, but media and compound are refreshed on d2 and d5 post initial treatment.
Compound toxicity is evaluated by seeding cells at 15,000 cells/well and treating with compound as described above. Three days after compound addition, cells are treated with ATPLite reagent and compound concentrations that reduce total ATP levels in wells by 50% relative to no drug controls (CC50) are reported; CC50 ranges are as follows: A>30 μM; B 10-30 μM; C<10 μM.

HBV = assay: HepAD38 antiviral assay: reduction of viral product accumulation (virion DNA by qPCR, HBsAg or HBeAg by ELISA); format: cell-based; settings: Hepatitis B virus, 120 h; HepAD38 cells, five days after compound addition; 50% reduction of viral product accumulation relative to no drug controls; read-out: HepAD38 EC50
Procedure: as §1
On harvest day, virion DNA is obtained by lysing with Sidestep Lysis and Stabilization Buffer and then quantified via quantitative real time PCR. Commercially available ELISA kits are used to quantitate the viral proteins HBsAg (Alpco) or HbeAg (US Biological) by following the manufacturer's recommended protocol after diluting samples to match the linear range of their respective assays. Irrespective of readout, compound concentrations that reduce viral product accumulation in the cell lysates or supernatants by 50% relative to no drug controls (EC50) are reported; EC50 ranges are as follows: A<1 μM; B 1-10 μM; C>10 μM.

| SMILES | CC50 at 3 days [1] [µM] | EC50 (HBV) [µM] |
| --- | --- | --- |
| Cc1cc(-c2cc(-c3ccc(Cl)c(S(=O)(=O)N4CCC(O)CC4)c3)n[nH]2)ccc1F [Example 25] | 10 to 30 | 1 to 10 |
| O=S(=O)(c1cc(-c2nc(-c3ccccn3)c[nH]2)ccc1Cl)N1CCC(O)CC1 [Example 33] | 10 to 30 | > 10 |
| O=S(=O)(c1cc(-c2nnc(-c3ccc(F)c(F)c3)[nH]2)ccc1Cl)N1CCC(O)CC1 [Example 23] | 10 to 30 | 1 to 10 |
| COC(=O)C(C)NS(=O)(=O)c1cc(-c2nc(-c3ccc(Br)c(F)c3)c[nH]2)ccc1Cl (stereo not shown) [Example 128] | > 30 | > 10 |
| NCCCNS(=O)(=O)c1cc(-c2ncc(-c3ccc(F)c(Br)c3)[nH]2)ccc1Cl [Example 61] | < 10 | 1 to 10 |
| O=S(=O)(c1cc(-c2nc(-c3cccc(Cl)c3)c[nH]2)ccc1Cl)N1CCC(O)CC1 [Example 53] | 10 to 30 | < 1 |
| O=S(=O)(c1cc(-c2nc(-c3ccc(Br)c(F)c3)c[nH]2)ccc1Cl)N1CC(O)C1 [Example 108] | > 30 | 1 to 10 |
| CN(C)S(=O)(=O)c1cc(-c2ncc(-c3ccc(F)c(Br)c3)[nH]2)ccc1Cl [Example 57] | 10 to 30 | 1 to 10 |
| O=S(=O)(c1cc(-c2n[nH]c3ccccc23)ccc1Cl)N1CCC(O)CC1 [Example 6] | > 30 | > 10 |
| O=S(=O)(NCCCO)c1cc(-c2ncc(-c3ccc(F)c(Br)c3)[nH]2)ccc1Cl [Example 43] | 10 to 30 | < 1 |
| CC(CO)NS(=O)(=O)c1cc(-c2nc(-c3ccc(Br)c(F)c3)c[nH]2)ccc1Cl (stereo not shown) [Example 127] | > 30 | < 1 |
| O=S(=O)(c1cc(-c2cnc(-c3ccc(F)c(F)c3)[nH]2)ccc1Cl)N1CCC(O)CC1 [Example 16] | > 30 | 1 to 10 |
| O=S(=O)(c1cc(-c2ncc(-c3ccc(F)c(F)c3)[nH]2)ccc1Cl)N1CCC(O)CC1 [Example 12] | > 30 | < 1 |
| O=S(=O)(c1c(Cl)ccc2c(-c3ccccc3)n[nH]c12)N1CCC(O)CC1 [Example 4] | > 30 | > 10 |
| O=S(=O)(c1cc(-c2nc3ccccc3[nH]2)ccc1Cl)N1CCC(O)CC1 [Example 9] | 10 to 30 | > 10 |
| O=S(=O)(c1cc(-c2ncc(-c3ccc(F)c(Br)c3)[nH]2)ccc1Cl)N1CCC(O)CC1 [Example 14] | 10 to 30 | < 1 |
| O=S(=O)(c1cc(-c2nc(-c3ccc(Br)c(F)c3)c[nH]2)ccc1Cl)N1CCC(F)(F)CC1 [Example 124] | < 10 | < 1 |
| O=S(=O)(c1cc(-c2nc(-c3ccccc3C3CC3)c[nH]2)ccc1Cl)N1CCC(O)CC1 [Example 122] | > 30 | > 10 |
| O=S(=O)(c1cc(-c2nc(-c3ccc(Br)c(F)c3)c[nH]2)ccc1Cl)N1CCCC1CO (stereo not shown) [Example 107] | > 30 | < 1 |
| O=S(=O)(c1cc(-c2cc(-c3ccc(F)c(Cl)c3)[nH]n2)ccc1Cl)N1CCC(O)CC1 [Example 29] | < 10 | < 1 |
| COC(=O)NCCCNS(=O)(=O)c1cc(-c2ncc(-c3ccc(F)c(Br)c3)[nH]2)ccc1Cl [Example 62] | 10 to 30 | 1 to 10 |
| O=S(=O)(c1cc(-c2nc(-c3cc(F)c(Br)c(F)c3)c[nH]2)ccc1Cl)N1CCC(O)CC1 [Example 131] | > 30 | < 1 |
| CC1(O)CCN(S(=O)(=O)c2cc(-c3ncc(-c4ccc(F)c(Br)c4)[nH]3)ccc2Cl)CC1 [Example 32] | 10 to 30 | 1 to 10 |
| O=S(=O)(NC[C@H](O)CO)c1cc(-c2ncc(-c3ccc(Br)c(F)c3)[nH]2)ccc1Cl [Example 213] |  | < 1 |

| SMILES | CC50 at 3 days [1] [µM] | EC50 (HBV) [µM] |
| --- | --- | --- |
| COC(=O)NCCCCCCNS(=O)(=O)c1cc(-c2nc(-c3ccc(Br)c(F)c3)c[nH]2)ccc1Cl [Example 241] |  | < 1 |
| C[C@H](NC(=O)OC(C)(C)C)C(=O)OC1CCN(S(=O)(=O)c2cc(-c3nc(-c4ccc(F)c(Br)c4)c[nH]3)ccc2Cl)CC1 [Example 169] |  | < 1 |
| O=S(=O)(c1cc(-c2nc(-c3ccc(Br)c(F)c3)c[nH]2)ccc1Cl)N1CCN(c2cccnc2)CC1 [Example 195] |  | < 1 |
| N#Cc1ccc(-c2c[nH]c(-c3ccc(Cl)c(S(=O)(=O)N4CCC(O)CC4)c3)n2)cc1Cl [Example 149] |  | < 1 |
| COC(=O)NCCCN(CCCO)S(=O)(=O)c1cc(-c2nc(-c3ccc(Br)c(F)c3)c[nH]2)ccc1Cl [Example 236] |  | < 1 |
| O=S(=O)(c1cc(-c2nc(-c3ccc(C4CC4)c(C(F)(F)F)c3)c[nH]2)ccc1Cl)N1CCC(O)CC1 [Example 171] |  | < 1 |
| O=P(O)(O)OC1CCN(S(=O)(=O)c2cc(-c3nc(-c4ccc(F)c(Br)c4)c[nH]3)ccc2Cl)CC1 [Example 207] |  | 1 to 10 |
| CC(C)(C)CC(=O)NCCCNS(=O)(=O)c1cc(-c2nc(-c3ccc(Br)c(F)c3)c[nH]2)ccc1Cl [Example 141] |  | < 1 |
| O=S(=O)(c1cc(-c2nc(-c3ccc(C(F)(F)F)cc3)c[nH]2)ccc1Cl)N1CCC(O)CC1 [Example 99] |  | > 10 |
| O=S(=O)(c1cc(-c2ncc(-c3ccc(Br)c(F)c3)[nH]2)ccc1Cl)N1CC[C@H](O)C1 [Example 271] |  | < 1 |
| COC(=O)NC1CN(S(=O)(=O)c2cc(-c3ncc(-c4ccc(Br)c(F)c4)[nH]3)ccc2Cl)C1 [Example 273] |  | < 1 |
| O=C(Nc1ccccc1)N1CCN(S(=O)(=O)c2cc(-c3nc(-c4ccc(Br)c(F)c4)c[nH]3)ccc2Cl)CC1 [Example 206] |  | > 10 |
| C[C@@H]1CCN(S(=O)(=O)c2cc(-c3nc(-c4ccc(Br)c(F)c4)c[nH]3)ccc2Cl)C[C@@H]1O [Example 244] |  | < 1 |
| CC(C)(C)OC(=O)NCC1CCN(S(=O)(=O)c2cc(-c3nc(-c4ccc(Br)c(F)c4)c[nH]3)ccc2Cl)C1 (stereo not shown) [Example 199] |  | < 1 |
| O=S(=O)(c1cc(-c2nc(-c3ccccc3O)c[nH]2)ccc1Cl)N1CCC(O)CC1 [Example 159] |  | 1 to 10 |
| O=S(=O)(c1cc(-c2nc(-c3ccc(Br)c(F)c3)c[nH]2)ccc1Cl)N1CC[C@H](CO)C1 [Example 254] |  | < 1 |
| CC(C)(C)OC(=O)NCCCCNS(=O)(=O)c1cc(-c2nc(-c3ccc(Br)c(F)c3)c[nH]2)ccc1Cl [Example 174] |  | < 1 |
| O=S(=O)(c1cc(-c2nc(-c3ccc(Br)c(F)c3)c[nH]2)ccc1Cl)N1CCN(c2cccc(Cl)n2)CC1 [Example 282] |  | < 1 |
| O=S(=O)(c1cc(-c2nc(-c3ccc(Br)c(F)c3)c[nH]2)ccc1Cl)N1C[C@@H](O)C[C@H]2C[C@H]2C1 [Example 34] |  | < 1 |
| COC(=O)NCCCCCNS(=O)(=O)c1cc(-c2nc(-c3ccc(Br)c(F)c3)c[nH]2)ccc1Cl [Example 175] |  | < 1 |
| CC(C)(C)OC(=O)NC[C@@H]1[C@H]2CN(S(=O)(=O)c3cc(-c4ncc(-c5ccc(F)c(Br)c5)[nH]4)ccc3Cl)C[C@@H]12 [Example 167] |  | 1 to 10 |
| O=S(=O)(c1cc(-c2nc(-c3ccc(Br)c(F)c3)c[nH]2)ccc1Cl)N1CC[C@@H](O)[C@H](O)CC1 [Example 20] |  | < 1 |
| O=S(=O)(c1cc(-c2nc(-c3ccc(Br)c(F)c3)c[nH]2)ccc1Cl)N1CC(O)C(CO)C1 (stereo not shown) [Example 255] |  | < 1 |
